Where “and” joins values, the source holds several entries; their conditions need not be identical. Identical values can stand only once. Like-named read-outs stand apart in the source and are kept apart here.
Tests used:
[1] = Hepatocyte intrinsic clearance assay (metabolic stability), human hepatocytes; format: in vitro ADME; details: male, human, cryopreserved pooled hepatocytes, Human Hepatocytes, 1 μM test compound
How it was run: (§1)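 Cryopreserved pooled hepatocytes (1×10^6 cells/mL final) incubated with 1 μM compound at 37 °C, 5% CO2; samples at 0–120 min quenched in acetonitrile, analysed by LC-MS in duplicate. t1/2 and CLint from ln(% remaining) vs time slope; CLH via well-stirred liver model (fu=1) and EH derived from it.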

[2] = tested on: human hepatocytes; assay: as above; format: in vitro ADME; details: for EH (hepatic extraction ratio): well stirred liver model, fu=1
How it was run: as §1

[3] = Hepatocyte intrinsic clearance assay (metabolic stability), rat hepatocytes; format: in vitro ADME; details: rat, cryopreserved hepatocytes, Rat Hepatocytes, 1 μM test compound
How it was run: as §1

[4] = tested on: rat hepatocytes; assay: as above; format: in vitro ADME; details: for EH (hepatic extraction ratio): well stirred liver model, fu=1; for CLint lower than that of ARI-164 (fold): rat hepatocytes
How it was run: as §1

[5] = In vivo pharmacokinetic studies in rats; parameters: species or system SD rats; details: rats; for AUC / AUC(0-inf) / Cmax at 1 day / MRT inf at 1 day / MRT last at 1 day / half-life at 1 day / AUC(0-t) / Tmax at 1 day / Cmax at 5 day / MRT last at 5 day / Tmax at 5 day / MRT inf at 5 days / half-life at 5 days: rat, plasma, po, 10 mg/kg; for AUC(0-inf) / Cmax at 1 day / MRT inf at 1 day / MRT last at 1 day / half-life at 1 day / AUC(0-t) / Tmax at 1 day / Cmax at 5 day / MRT last at 5 day / Tmax at 5 day / AUCinf / AUClast / Cmax / MRTinf / MRTlast / T1/2 / Tmax / MRT inf at 5 days / half-life at 5 days: repeat 10 mg/kg PO QD; for AUC(0-t): read-out: AUClast; for Tmax at 1 day: read-out: Tmax; for behaviour of exposure after 5 days of repeat dosing (in words): 10 mg/kg PO QD for 5 days
Description: This example describes pharmacokinetic (PK) studies of ARI-164, ARI-165, ARI-186, ARI-224, and ARI-226 in mice and rats. In the present studies, the test compounds were given to groups of mice and/or rats (N=3 in each group), intravenously (IV) at 2 mg/kg or orally (PO) at 10, 30, or 40 mg/kg. ARI-186, ARI-224 and ARI-226 were given orally to rats QD for 5 days at 10 mg/kg to assess whether decreased susceptibility to CYP1A1/1A2 metabolism would lead to increased accumulation. IV doses were formulated in DMSO, while PO doses were formulated in a 50/50 mixture of PEG400 and Tween 80 (single dose mouse and rat studies for ARI-164, ARI-165, ARI-186, ARI-224, ARI-226) or PEG400/Kolliphor HS15/Oleic Acid 45/45/10 (ARI-164 repeat dose rat study). Blood samples were collected at pre-dose and over a period of 24 hours post-dose. Plasma concentrations of the test compounds were determined by HPLC.

[6] = Sprague-Dawley (SD), Day 1, Mean of 3 animals
[7] = Sprague-Dawley, Day 1, individual animal
[8] = Sprague-Dawley, Day 5, individual animal

SMILES: CC[C@H](N)c1csc(C(=O)c2c[nH]c3cc(F)ccc23)n1 [ARI-186, (S)-(4-(1-aminopropyl)thiazol-2-yl)(6-fluoro-1H-indol-3-yl)methanone]
- half-life at 1 μM [1]: 7.9 h
- hepatocyte CLint at 1 μM [1]: 1.5 µL/min/1e6 cells
- CLint ([2]; Human Hepatocytes, 1 μM test compound): 1.453 μL/min/10^6 cells
- EH (hepatic extraction ratio) ([2]; Human Hepatocytes): 8.7%
- CLint lower than that of ARI-164 (fold improvement) ([2]; human hepatocytes): 10.8 ×
- half-life at 1 μM [3]: 2.8 h
- hepatocyte CLint at 1 μM [3]: 4.1 µL/min/1e6 cells
- CLint ([4]; Rat Hepatocytes, 1 μM test compound): 4.127 μL/min/10^6 cells
- EH (hepatic extraction ratio) ([4]; Rat Hepatocytes): 21.6%
- CLint lower than that of ARI-164 (fold) [4]: 1.8 ×
- AUC ([5]; SD, repeat oral dosing 10 mg/kg QD, read-out: AUC on day 1): 5940 ng·h/mL
- AUC ([5]; SD, repeat oral dosing 10 mg/kg QD, read-out: AUC on day 5): 29100 ng·h/mL
- AUC(0-inf) [5, 6]: 6480 ng·h/mL
- Cmax at 1 day [5, 6]: 399 ng/mL
- MRT inf at 1 day [5, 6]: 10.1 h
- MRT last at 1 day [5, 6]: 8.06 h
- half-life at 1 day [5, 6]: 6.04 h
- AUC(0-t) [5, 6]: 5940 ng·h/mL
- Tmax at 1 day [5, 6]: 6.67 h
- AUC(0-t) ([5]; Sprague-Dawley (SD), Day 5, individual animal): 33600 ng·h/mL
- AUC(0-inf) [5, 7]: 6920 ng·h/mL
- Cmax at 1 day [5, 7]: 397 ng/mL
- MRT inf at 1 day [5, 7]: 10.5 h
- MRT last at 1 day [5, 7]: 8.14 h
- half-life at 1 day [5, 7]: 6.44 h
- AUC(0-t) [5, 7]: 6260 ng·h/mL
- Tmax at 1 day [5, 7]: 8 h
- Cmax at 5 day ([5]; Sprague-Dawley, Day 5, Mean): 1580 ng/mL
- MRT last at 5 day ([5]; Sprague-Dawley, Day 5, Mean): 11.5 h
- Tmax at 5 day ([5]; Sprague-Dawley, Day 5, Mean): 4.67 h
- AUC(0-t) ([5]; Sprague-Dawley, Day 5, Mean): 29100 ng·h/mL
- Cmax at 5 day [5, 8]: 1610 ng/mL
- MRT last at 5 day [5, 8]: 11.6 h
- behaviour of exposure after 5 days of repeat dosing (in words) [5]: accumulation towards steady state
- AUCinf ([5]; Day 1, individual animal): 6000 ng·h/mL and 6510 ng·h/mL
- AUClast ([5]; Day 1, individual animal): 5400 ng·h/mL and 6150 ng·h/mL
- Cmax ([5]; Day 1, individual animal): 359 ng/mL and 441 ng/mL
- MRTinf ([5]; Day 1, individual animal): 10.9 h and 8.93 h
- MRTlast ([5]; Day 1, individual animal): 8.40 h and 7.63 h
- T1/2 ([5]; Day 1, individual animal): 6.45 h and 5.22 h
- Tmax ([5]; Day 1, individual animal): 4 h
- AUClast ([5]; Day 5, individual animal): 24600 ng·h/mL
- Cmax ([5]; Day 5, individual animal): 1310 ng/mL and 1810 ng/mL
- MRTlast ([5]; Day 5, individual animal): 11.4 h
- Tmax ([5]; Day 5, individual animal): 4 h
- accumulation (AUC day 5 vs day 1) ([5]; repeat oral dosing 10 mg/kg QD): 4.9 ×

SMILES: N[C@@H](c1csc(C(=O)c2c[nH]c3cc(F)ccc23)n1)C(F)(F)F [ARI-224]
- half-life at 1 μM [1]: 3 h
- hepatocyte CLint at 1 μM [1]: 3.85 µL/min/1e6 cells
- EH (hepatic extraction ratio) ([2]; Human Hepatocytes): 15.8%
- half-life at 1 μM [3]: 1.9 h
- hepatocyte CLint at 1 μM [3]: 6.12 µL/min/1e6 cells
- EH (hepatic extraction ratio) ([4]; Rat Hepatocytes): 29.0%
- CLint lower than that of ARI-164 (fold) [4]: slightly lower
- AUC(0-inf) ([5]; SD, Day 5, Mean): 8.24 ng·h/mL
- MRT inf at 5 days ([5]; SD, Day 5, Mean): 1.95 h
- half-life at 5 days ([5]; SD, Day 5, Mean): 1.28 h
- AUC(0-inf) ([5]; SD, Day 5, individual animal): 8.24 ng·h/mL
- MRT inf at 5 days ([5]; SD, Day 5, individual animal): 1.95 h
- half-life at 5 days ([5]; SD, Day 5, individual animal): 1.28 h
- AUC(0-inf) [5, 6]: 2680 ng·h/mL
- Cmax at 1 day [5, 6]: 792 ng/mL
- MRT inf at 1 day [5, 6]: 2.79 h
- MRT last at 1 day [5, 6]: 2.48 h
- half-life at 1 day [5, 6]: 1.55 h
- AUC(0-t) [5, 6]: 2600 ng·h/mL
- Tmax at 1 day [5, 6]: 1.33 h
- Cmax at 1 day [5, 7]: 699 ng/mL
- MRT inf at 1 day [5, 7]: 3.23 h
- MRT last at 1 day [5, 7]: 2.66 h
- half-life at 1 day [5, 7]: 2.05 h
- Tmax at 1 day [5, 7]: 1 h
- Cmax at 5 day ([5]; Sprague-Dawley, Day 5, Mean): 5.96 ng/mL
- MRT last at 5 day ([5]; Sprague-Dawley, Day 5, Mean): 4.56 h
- Tmax at 5 day ([5]; Sprague-Dawley, Day 5, Mean): 0.333 h
- AUC(0-t) ([5]; Sprague-Dawley, Day 5, Mean): 11.4 ng·h/mL
- Tmax at 5 day [5, 8]: 0.5 h
- behaviour of exposure after 5 days of repeat dosing (in words) [5]: increased elimination
- AUCinf ([5]; Day 1, individual animal): 2140 ng·h/mL and 4070 ng·h/mL and 1840 ng·h/mL
- AUClast ([5]; Day 1, individual animal): 1990 ng·h/mL and 4030 ng·h/mL and 1770 ng·h/mL
- Cmax ([5]; Day 1, individual animal): 1090 ng/mL and 587 ng/mL
- MRTinf ([5]; Day 1, individual animal): 2.48 h and 2.66 h
- MRTlast ([5]; Day 1, individual animal): 2.42 h and 2.36 h
- T1/2 ([5]; Day 1, individual animal): 1.04 h and 1.57 h
- Tmax ([5]; Day 1, individual animal): 2 h
- AUClast ([5]; Day 5, individual animal): 11.9 ng·h/mL and 14.9 ng·h/mL and 7.28 ng·h/mL
- Cmax ([5]; Day 5, individual animal): 5.53 ng/mL and 8.36 ng/mL and 3.98 ng/mL
- MRTlast ([5]; Day 5, individual animal): 3.29 h and 8.95 h and 1.44 h
- Tmax ([5]; Day 5, individual animal): 0.25 h
